Reference: patent publication US9562082B2, “Production of glycoproteins with low N-glycolylneuraminic acid (Neu5Gc) content” (LEK Pharmaceuticals D.D., priority 2009, dated 2017)

How the values were obtained:
CMP-Neu5Ac hydroxylase = molecular target: T1, CMP-Neu5Ac hydroxylase (Mus musculus, UniProt Q61419); parameters: concentration or dose not given beside the values; details: in vitro; cited from earlier work
T1 sequence (Q61419 5-577): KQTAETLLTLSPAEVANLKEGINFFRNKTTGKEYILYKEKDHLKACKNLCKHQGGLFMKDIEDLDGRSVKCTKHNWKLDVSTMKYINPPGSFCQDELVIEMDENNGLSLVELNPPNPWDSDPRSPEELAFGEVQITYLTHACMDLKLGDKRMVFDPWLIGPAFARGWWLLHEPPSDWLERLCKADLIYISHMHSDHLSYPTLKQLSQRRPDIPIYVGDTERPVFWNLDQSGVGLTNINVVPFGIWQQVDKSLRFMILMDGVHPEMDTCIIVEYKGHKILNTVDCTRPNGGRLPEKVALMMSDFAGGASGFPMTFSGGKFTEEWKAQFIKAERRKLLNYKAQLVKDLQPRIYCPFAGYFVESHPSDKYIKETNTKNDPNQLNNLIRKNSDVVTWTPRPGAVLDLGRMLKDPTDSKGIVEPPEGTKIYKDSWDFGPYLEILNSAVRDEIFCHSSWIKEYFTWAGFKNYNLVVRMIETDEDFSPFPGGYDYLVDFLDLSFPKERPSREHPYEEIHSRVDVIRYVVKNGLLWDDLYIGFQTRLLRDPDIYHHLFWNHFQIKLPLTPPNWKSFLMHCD

Recombinant CHO cells = test: Neu5Gc content of glycoprotein secreted by CHO cells cultivated with medium additives (RP-HPLC of DMB-labelled sialic acids); format: cell-based, Chinese hamster; details: NAcMan 5 mM in fermentation medium, darbepoetin alfa
Description: Recombinant CHO cells expressing high titres of the glycosylated human glycoproteins were cultivated in suspension culture using rich in-house standard medium without additives according to the invention. After 2 weeks of passages, the cells were first harvested and subsequently inoculated into the same medium, however, supplemented with a range of DMSO concentrations from 0.25% to 1.50% (w/v). The effect of DMSO on growth, productivity, degree of sialylation, and Neu5Gc content was studied.
“One factor at the time”-experiments with different DMSO concentrations at 37° C. and 33° C., respectively, were performed at first in an attempt to determine the DMSO concentration and temperature which are best to minimise the Neu5Gc content on the glycoproteins secreted. To study the interaction between the parameters (i) DMSO concentration, (ii) time of DMSO addition, and (iii) time of the temperature shift (from 37° C. to 33° C.), further experiments were performed with the Design-Expert/Design-Ease programme (Stat-Ease, Inc., Minneapolis, Minn., USA) using the response surface method. Parameters (i), (ii), and (iii) were chosen as numeric factors and the axial points were set slightly out of already known ranges in order to cover a wide design space. One replicate on axial points, one replicate on factorial points and 4 centre points were performed. The results were analysed using the Design of Expert (DOE) software (Design-Expert, Version 7.1). The results of the shake flask experiments were confirmed in the Biostat®B bioreactor (Sartorius, B. Braun Biotech International, Germany). Exponentially growing cells were taken from cell culture flasks having a surface area of 225 cm^2 (Corning®Costar®). A Biostat®B bioreactor with a working volume of 5 litres was inoculated with 2×10^5 cells/ml. Cells were cultivated in a batch mode under standard conditions (37° C., pH 7.0, dissolved oxygen concentration (DOT) 50%) in the rich in-house standard medium supplemented with 0.75% (w/v) DMSO.
In order to study the effect of key intermediates of the metabolic pathway leading to the sialylation of the glycoproteins and consequently to the conversion of Neu5Ac to Neu5Gc, a two factorial minimal resolution IV design, which allows for the estimation of the main effects, was established. Said design allowed the determination which of the components NAcMan, NAcGlc, Man, Fru, and Gal has/have an impact on the degree of sialylation and conversion of Neu5Ac to Neu5Gc. To confirm the results from the DOE findings, the production medium was enriched with 8.75 mM NAcMan and 8.75 mM NAcGlc in combination with manganese (Mn^2+) salts in different concentrations, e.g., in the concentrations mentioned earlier in this application.
At the end of the batch culture the cells were removed. The glycoproteins were purified from the remaining harvests by means of immuno-affinity chromatography. Briefly, up to 2 mg of each of the glycoproteins per ml of the chromatographic resin (20-500 ml of the harvest) were loaded onto the column. Elution of the glycoproteins was performed with 0.1 M Na-phosphate buffer, pH 2.5. By adding 1 M Na-phosphate buffer, pH 7.5 (made up by a combination of Na2H-phosphate and NaH2-phosphate), the pH of the eluate was immediately adjusted to 7 and then stored for further analysis at below −60° C.
Sialic acids (Neu5Gc, Neu5Ac, Neu-5,7Ac2, Neu5Gc9Ac, Neu-5,9Ac2, Neu-5,8,9Ac3) were differentiated using highly sensitive RP-HPLC. Enzymatic desialylation with neuraminidase (a2-3,6,8,9-neuraminidase (Sialidase) from Arthrobacter ureafaciens, Roche, USA) released sialic acids. The released sialic acids were labelled with the fluorescent dye 1,2-diamino-4,5-methylenedioxybenzene (DMB). DMB-labelling is non-selective and therefore provides a pool of labelled sialic acid derivates in stoichiometric amounts. Derivates of the DMB-labelled sialic acids were separated on an RP-HPLC column using isocratic elution. […]

chickens = details: rhEPO 1% Neu5Gc, fetuin 7% Neu5Gc, GM3 all Neu5Ac converted into Neu5Gc; cited from earlier work

Row | Compound | inhibition of CMP-Neu5Ac hydroxylase (CMP-Neu5Ac hydroxylase) [%] | further results
1 | [Co+2] [Co^2+] | 50 | 
2 | [Cu+2] [Cu^2+] | 80 | 
3 | O=C(O)CN(CCN(CC(=O)O)CC(=O)O)CC(=O)O [EDTA] | 60 | 
4 | [Mn+2] [Mn^2+] | 50 | 
5 | CC(=O)N[C@@H]1C(O)O[C@H](CO)[C@@H](O)[C@@H]1O (stereo partly drawn) [NAcMan, N-acetylmannosamine] |  | content of Neu5Gc (Recombinant CHO cells): about 0.5%
6 | [Ni+3] [Ni^3+] | 50 | 
7 | [Zn+2] [Zn^2+] | 30 | 
8 | O=S(=O)([O-])c1ccc(-c2nnc(-c3ccccn3)nc2-c2ccc(S(=O)(=O)[O-])cc2)cc1.[Na+].[Na+] [ferozzine] | 25 | 
9 | c1cnc2c(c1)ccc1cccnc12 [phenanthreoline] | 25 | 
10 | O=S(=O)(O)c1cc(O)c(O)c(S(=O)(=O)O)c1 [tiron] | 100 | 
11 | fetuin: glycoprotein with a content of Neu5Gc amounting to 7% |  | titre of antibodies against Neu5Gc in immunised chickens (chickens): a significant titre of antibodies against Neu5Gc
12 | rhEPO: recombinant human erythropoietin produced by Chinese hamster ovary (CHO) cells |  | titre of antibodies against Neu5Gc in immunised chickens (chickens): did not produce a significant titre
